{"source": "paper PMC10069031", "about": "(European Journal of Medical Research, 2023)", "assay_type_in_all_cases": "in vivo, mouse", "key": {"CD115^hi cells in blood": {"system": "CD115^hi cells in blood", "experiment": "CD115^hi cells in blood, MC38 study", "conditions": "C57BL/6 mice with subcutaneous MC38 CRC tumors", "description": "(§1) For tumors, single-cell suspensions were prepared from the fresh tumor pieces using a mouse Tumor Dissociation Kit (Miltenyi Biotec). The final cell pellets were resuspended in 1 mL FC buffer (PBS with 2 mM EDTA, 0.5% bovine serum albumin). Then, 100 µL of the tumor single-cell suspensions and the EDTA blood samples were stained by addition of the antibody cocktail and incubated for 10 min at 4 °C according to the manufacturer’s instructions. After antibody incubation, blood samples were incubated with 2–3 mL lysis buffer (0.17 M NH4Cl, 10 mM KHCO3, 0.1 mM EDTA) for 10–20 min at RT to lyse and remove red blood cells. Subsequently, samples were centrifuged at 300 g for 5 min at 4 °C and cells were washed with 2–3 mL FC buffer. Tumor samples were washed immediately after antibody incubation with 2–3 mL FC buffer without the lysis procedure and centrifuged at 300 g for 5 min at 4 °C. […] Next, 50 µL of blood and 70 µL of tumor cell suspensions were analyzed by FC using MACSQuant Analyzer 10 and MACSQuant Analyzer 16 (Miltenyi Biotec). FC data were analyzed with the FlowLogic software (Inivai Technologies distributed through Miltenyi Biotec; version 7.2.1) and gated as shown in Fig. S1 (see Additional file 2), whereby up to seven subpopulations were identified in the CD45^+ fraction using antibodies against F4/80 and CD115. […]"}, "CT26 tumors": {"system": "CT26 tumors", "experiment": "Growth of subcutaneous CT26 tumors in BALB/c mice", "conditions": "CRC tumors in mice", "description": "CT26 tumor cells were cultivated in RPMI 1640 with 2 mM L-glutamine (Gibco, Invitrogen GmbH) containing 10% fetal bovine serum (Gibco) at 37 °C and 5% CO2. Cell lines were maintained in culture for no longer than 6 months, and mycoplasma contamination was excluded by enzymatic test (MycoAlert, Lonza) prior to in vivo application. Tumor cells (2 × 10^6) were transplanted subcutaneously into 6- to 8-week-old female BALB/c mice. Control mice were subjected to sham surgery without tumor cell transplantation. Blood and tumor samples were collected from untreated control and tumor-bearing mice on days 4 and 8 (n = 3 mice/group). […] Tumor diameter was measured by caliper and body weight was determined at least twice weekly. Tumor volume was calculated using the formula 0.5 × a × b^2, where a and b are the long and short diameters of the tumor, respectively.\nFor tissue collection, mice were killed at predetermined time points. […] Tumors were removed, and their weights determined, then divided into three pieces, one of which was snap-frozen, one formalin fixed and paraffin embedded, and one weighed and used for FC analyses. […]\nAn overall comparison between treatment groups of the endpoints measured on CT26 and MC38 mice after they had been killed was performed using different statistical models. […]"}, "F4/80^hi population": {"system": "F4/80^hi population", "experiment": "F4/80^hi cells in MC38 tumors", "conditions": "even at 5 mg/kg/day", "description": "as §1"}}}
{"smiles": "CNC(=O)c1cc(Oc2ccc(NC(=O)Nc3ccc(Cl)c(C(F)(F)F)c3)c(F)c2)ccn1", "note": "[REG, Regorafenib]", "values": [{"measurement": "number of CD115^hi cells in the blood", "setting": "CD115^hi cells in blood", "result": "reduced"}, {"measurement": "partial or complete remission", "setting": "CT26 tumors", "result": "did not induce partial or complete remission"}, {"measurement": "tumor growth vs vehicle", "setting": "CT26 tumors", "result": "significantly inhibited"}, {"measurement": "reduction of the F4/80^hi population vs vehicle", "setting": "F4/80^hi population", "result": "more than twofold"}]}
